Laboratory results as given in PMC9026428, “New Peptide Based Fluconazole Conjugates with Expanded Molecular Targets” (Pharmaceutics, 2022).
Converted amounts (≈) assume the structure as drawn. Non-standard residues stand in square brackets, D forms with d. Residues, ends and D or L forms follow the SMILES beside them. Nle = CCCC[C@H](N)C(=O)O

Key:
[1] = system: Hs27 cells (human foreskin fibroblast cell line); experiment: MTT cytotoxicity assay
Experimental: (§1) The assessment of antifungal potential of synthesized agents was carried out using four reference strains (C. albicans ATCC 10231, C. albicans SC5314, C. glabrata DSM […] and C. krusei DSM […]) and six clinical isolates of fluconazole-resistant C. albicans that were provided by the Hospital of Medical University of Gdansk, Poland. Moreover, four C. albicans isolates, assigned as B3, B4, Gu4 and Gu5, were used for investigation whether the synthesized fluconazole derivatives were effectively removed from the yeast cells by the drug efflux transporters, as in the case of fluconazole. These strains were kindly provided by Prof. Joachim Morschhäuser from University of Würzburg (Würzburg, Germany). Strains Gu4 and B3 were fluconazole-sensitive isolates obtained from early infection episodes, while Gu5 and B4 were the corresponding fluconazole-resistant isolates obtained from later episodes in the same patients treated with fluconazole. The lack of susceptibility of the Gu5 strain to fluconazole was a consequence of overexpression of CDR1/2 genes encoding ABC transporters, whereas the resistance of B4 strain was caused by overexpression of the MDR1 gene encoding a membrane transport protein of the major facilitator superfamily (MFS). All of these Candida spp. strains were maintained on YPD agar plates (1% (w/v) yeast extract, 2% (w/v) peptone, 2% (w/v) glucose, 2% (w/v) agar) at 30 °C for 16–24 h. For all of the assays aimed at assessing the antifungal potential of the synthesized agents, the yeasts were cultivated at 37 °C in RPMI 1640 medium (with L-glutamine, without sodium bicarbonate, Sigma-Aldrich, Darmstadt, Germany)) buffered to a pH of 7.0 with 0.165 M morpholinepropanesulfonic acid (MOPS) buffer (Sigma-Aldrich). In this study, we used the human foreskin fibroblast cell line Hs27 (ATCC CRL 1634TM) and the human endothelial cell line HUVEC (C2519A), purchased from Lonza Group AG, (Basel, Switzerland). The Hs27 cells were maintained in cell media consisting of Dulbecco’s modified Eagles medium (DMEM), (Corning, Arizona, USA) with 10% fetal bovine serum (FBS), (Corning, Port Elizabeth, South Africa), 1% penicillin/streptomycin (Sigma-Aldrich Inc., Darmstadt, Germany), and 1% L-glutamine (Corning, Arizona, USA). The human endothelial cell line was maintained in cell media consisting of Endothelial Cell Growth Medium-2 Single Quots Kit (Lonza, USA). Both cell lines were cultured in an incubator at 37 °C and 5% CO2.
(§2) Hs27 and HUVEC mammalian cell lines were cultured as mentioned above. Once cell lines were about 80% confluent, cells were counted by a hemacytometer (Hausser Scientific, Horsham, PA, USA) and plated in 96-well microtiter plates at concentrations of 4500 cells per well for Hs27 and 2000 cells per well for HUVEC. Cells were allowed to attach overnight. […] The final concentration of DMSO was ensured to be around 1% in all experiments. Cells were incubated with studied compounds for 72 h at 37 °C and 5% CO2. After incubation, 20 µL of MTT solution in PBS (4 mg/mL) was added to all wells and incubated further for 3 h at 37 °C. Formed formazan crystals were dissolved in 150 µL DMSO, and absorbance was measured using an Asys UVM340 multi-well plate reader at λ = 540 nm. Cytotoxicity was determined compared to drug-free control. All experiments were performed in biological triplicates.

[2] = MTT cytotoxicity assay; settings: human, Hs27 cells (human foreskin fibroblast cell line)
Experimental: as §1, §2

[3] = system: C. albicans SC5314; experiment: Membrane permeabilization assay by propidium iodide uptake (flow cytometry, fluorescence microscopy); assay type: cell-based, Candida albicans
Experimental: Suspensions of C. albicans SC5314 were prepared by taking one loop of pure culture growth from 24 h YPD agar plates into RPMI 1640 medium and adjusting optical density to 0.1 at 660 nm wavelength. […] The cell suspensions were then treated for 0.5, 2, 4, 6, and 24 h at 37 °C with continuous agitation (180 rpm). The cells were then centrifuged and resuspended in 200 µL of PBS buffer (pH 7.4). Subsequently, cells were treated with propidium iodide (1 mg/mL, final concentration) and incubated for 30 min at room temperature in the dark. Cellular fluorescence was visualized using lens 20×, using Olympus Fluorescence Microscope BX60 (Olympus, Tokyo, Japan). The images were also post-processed utilizing cell Sens program. The fluorescence intensity emitted by DNA-bound propidium iodide was measured using a flow cytometer (Merck Millipore guava easyCyte 8, Darmstadt, Germany). Data were obtained from at least two independent experiments.

[4] = system: HUVEC cells (human umbilical venous endothelial primary cells); experiment: MTT cytotoxicity assay
Experimental: as §1, §2

[5] = MTT cytotoxicity assay; settings: human
Experimental: as §1, §2

[6] = system: Candida glabrata DSM 6128; experiment: microbe, parasite or virus in culture; settings: Nakaseomyces glabratus, DSM6128, 24 h, pH 7
Experimental: as §1
(§3) Antifungal activity of the tested compounds against yeast cells was determined in 96-well plates as described in the CLSI document M27-A3 [39], with minor modifications (CLSI, 2008). […] The plates were incubated for 24 h at 37 °C. Each test was performed in triplicate. The final concentration of DMSO was ensured to be around 1% in all experiments.
(§4) For determination of minimum fungicidal concentrations (MFC), small aliquots of suspensions (around 10 μL) from each well were transferred using the pipette to YPD agar plates without inhibitors and incubated for 24 h at 37 °C.

[7] = system: Candida albicans 48; experiment: microbe, parasite or virus in culture; settings: Candida albicans, 48, 24 h, pH 7
Experimental: as §1, §3, §4

[8] = system: Candida albicans B3; experiment: microbe, parasite or virus in culture; settings: Candida albicans, B3, 24 h, pH 7
Experimental: as §1, §3, §4

[9] = system: Candida albicans SC 5314; experiment: microbe, parasite or virus in culture; settings: Candida albicans, SC5314, 24 h, pH 7
Experimental: as §1, §3, §4

[10] = system: Candida albicans 190; experiment: microbe, parasite or virus in culture; settings: Candida albicans, 190, 24 h, pH 7
Experimental: as §1, §3, §4

[11] = system: Candida albicans B4; experiment: microbe, parasite or virus in culture; settings: Candida albicans, B4, 24 h, pH 7
Experimental: as §1, §3, §4

[12] = system: Candida albicans ATCC 10231; experiment: microbe, parasite or virus in culture; settings: Candida albicans, ATCC10231, 24 h, pH 7
Experimental: as §1, §3, §4

[13] = system: Candida albicans 574; experiment: microbe, parasite or virus in culture; settings: Candida albicans, 574, 24 h, pH 7
Experimental: as §1, §3, §4

[14] = system: Candida albicans 138; experiment: microbe, parasite or virus in culture; settings: Candida albicans, 138, 24 h, pH 7
Experimental: as §1, §3, §4

[15] = system: Candida albicans 604; experiment: microbe, parasite or virus in culture; settings: Candida albicans, 604, 24 h, pH 7
Experimental: as §1, §3, §4

[16] = system: Candida albicans 247; experiment: microbe, parasite or virus in culture; settings: Candida albicans, 247, 24 h, pH 7
Experimental: as §1, §3, §4

[17] = system: Candida krusei DSM 11226; experiment: microbe, parasite or virus in culture; settings: Pichia kudriavzevii, DSM11226, 24 h, pH 7
Experimental: as §1, §3, §4

[18] = system: Candida albicans Gu5; experiment: microbe, parasite or virus in culture; settings: Candida albicans, GU5, 24 h, pH 7
Experimental: as §1, §3, §4

[19] = system: Candida albicans Gu4; experiment: microbe, parasite or virus in culture; settings: Candida albicans, GU4, 24 h, pH 7
Experimental: as §1, §3, §4

[20] = in vivo; cited from earlier work
Experimental: Fluconazole is water-soluble, safe for patients even at a high daily dose ([…]), can be applied either intravenously or orally, and has a beneficial pharmacokinetic profile and broad spectrum of activity.

[21] = system: C. albicans ATCC 10231; settings: C. albicans ATCC 10231, RPMI-1640, 200 – 0.4 μg/mL range
Experimental: (§5) The selective activities of the FLC-conjugates were calculated according to the following formula
(§6) (1 picture or pasted object on this page, not shown here)

[22] = system: C. parapsilosis DSM 5784; settings: C. parapsilosis DSM 5784, RPMI-1640, 200 – 0.4 μg/mL range
Experimental: as §5, §6

[23] = system: C. glabrata DSM 11226; settings: C. glabrata DSM 11226, RPMI-1640, 200 – 0.4 μg/mL range
Experimental: as §5, §6

[24] = system: C. tropicalis (clinical); settings: RPMI-1640, 200 – 0.4 μg/mL range
Experimental: as §5, §6

[25] = system: C. krusei DSM 6128; settings: C. krusei DSM 6128, RPMI-1640, 200 – 0.4 μg/mL range
Experimental: as §5, §6

[26] = system: C. albicans SC5314; settings: C. albicans SC5314, RPMI-1640, 200 – 0.4 μg/mL range
Experimental: as §5, §6

[27] = system: C. albicans opt1-opt5Δptr2Δptr22Δ; settings: RPMI-1640, 200 – 0.4 μg/mL range
Experimental: as §5, §6

OC(Cn1cncn1)(Cn1cncn1)c1ccc(F)cc1F [FLC, fluconazole]
In vitro cytotoxicity IC90 ± SEM [1]: >100 µM
IC50 at 72 h [2]: > 100 µM
cell membrane disruption (PI uptake), in words ([3]; C. albicans SC5314, 8 × MIC (62 µM), 4 or 6 h): No symptoms of cell membrane disruption
Dead (%), PI uptake by flow cytometry ([3]; SC5314, 4 h): 2,50%
Live (%), PI uptake by flow cytometry ([3]; SC5314, 4 h): 97,5%
Dead (%), PI uptake by flow cytometry ([3]; SC5314, 6 h): 2,83%
Live (%), PI uptake by flow cytometry ([3]; SC5314, 6 h): 97,2%
In vitro cytotoxicity IC90 ± SEM [4]: >100 µM
IC50 at 72 h [5]: > 100 µM
MIC50 [6]: 62 µM (≈ 19 µg/mL)
MIC90 [6]: 250 µM (≈ 76.6 µg/mL)
MIC90 [7]: > 250 µM
MIC90 [8]: 15 µM (≈ 4.59 µg/mL)
MIC50 [9]: < 8 µM
MIC90 [9]: < 8 µM
MIC90 [10]: > 250 µM
MIC90 [11]: 62 µM (≈ 19 µg/mL)
MIC50 [12]: < 8 µM
MIC90 [12]: < 8 µM
MIC90 [13]: > 250 µM
MIC90 [14]: > 250 µM
MIC90 [15]: > 250 µM
MIC90 [16]: > 250 µM
MIC50 [17]: 70 µM (≈ 21.4 µg/mL)
MIC90 [17]: 125 µM (≈ 38.3 µg/mL)
MIC90 [18]: > 250 µM
MIC90 [19]: 31 µM (≈ 9.49 µg/mL)
incidence rate of azole-induced liver injury [20]: 1%

CCCC[C@H](NC(=O)[C@H](CCCNC(=N)N)NC(=O)[C@H](Cc1c[nH]c2ccccc12)NC(=O)[C@H](CCC(N)=O)NC(=O)[C@H](Cc1c[nH]c2ccccc12)NC(=O)[C@H](CCCNC(=N)N)NC(=O)[C@H](CCCNC(=N)N)NC(=O)[C@H](CS)NC(=O)[C@H](CCCCN)NC(=O)[C@H](Cc1ccccc1)NC(=O)[C@@H](N)CCCC)C(=O)N[C@@H](CCCCN)C(=O)N[C@@H](CCCCN)C(=O)N[C@@H](CC(C)C)C(=O)NCC(N)=O [LFacinB[Nle^1,11]-NH2] (H-[Nle]FKCRRWQWR[Nle]KKLG-NH2; N-terminus assumed)
MIC50 [21]: > 100 µg/mL
MIC90 [21]: > 100 µg/mL
MIC50 [22]: > 100 µg/mL
MIC90 [22]: > 100 µg/mL
MIC50 [23]: > 100 µg/mL
MIC90 [23]: > 100 µg/mL
MIC50 [24]: 50 µg/mL (≈ 24.8 µM)
MIC90 [24]: > 100 µg/mL
MIC50 [25]: 100 µg/mL (≈ 49.6 µM)
MIC90 [25]: 100 µg/mL (≈ 49.6 µM)

CC[C@H](C)[C@H](NC(=O)[C@H](CCCCN)NC(=O)[C@H](CCCCN)NC(=O)[C@H](C)NC(=O)[C@H](CC(C)C)NC(=O)[C@H](C)NC(=O)[C@H](C)NC(=O)[C@H](CC(C)C)NC(=O)[C@H](C)NC(=O)[C@H](CCCCN)NC(=O)[C@H](CC(C)C)NC(=O)[C@H](CC(N)=O)NC(=O)[C@@H](NC(=O)[C@H](CCCCN)NC(=O)CNC(=O)[C@H](CC(C)C)NC(=O)[C@H](CC(C)C)NC(=O)[C@H](Cc1ccc(O)cc1)NC(=O)CNC(=O)[C@H](C)N)[C@@H](C)CC)C(=O)N[C@@H](CC(C)C)C(N)=O [TP10-NH2]
MIC50 [26]: 50 µg/mL (≈ 22.9 µM)
MIC90 [26]: 50 µg/mL (≈ 22.9 µM)
MIC50 [21]: 200 µg/mL (≈ 91.7 µM)
MIC90 [21]: 200 µg/mL (≈ 91.7 µM)
MIC50 [23]: 200 µg/mL (≈ 91.7 µM)
MIC90 [23]: 200 µg/mL (≈ 91.7 µM)
MIC50 [25]: 50 µg/mL (≈ 22.9 µM)
MIC90 [25]: 50 µg/mL (≈ 22.9 µM)
MIC50 [27]: 25 µg/mL (≈ 11.5 µM)
MIC90 [27]: 25 µg/mL (≈ 11.5 µM)
